Laboratory results reported in patent publication US20120171126A1, “NOVEL [3,2-c] HETEROARYL STEROIDS AS GLUCOCORTICOID RECEPTOR AGONISTS COMPOSITIONS AND USES THEREOF” (priority 2009, published 2012).

tested on: IL-8; test: Glucocorticoid transrepression assay, IL-8 inhibition (TR); assay type: cell-based; details: Homo sapiens; Table 1; NCl-H292 cells, TNFα 10 ng/ml; read-out: IL-8 inhibition (TR) Emax % inhibition
Method: Human Lung epithelial cell line NCl-H292 cells were dissociated from stock flask using 0.05% trypsin/0.53 mM EDTA. Cells were suspended in complete medium and counted. Cells were plated in 96-well flat-bottom plates at 20K cells /well in 0.2 ml/well. Plates were incubated for 24-48 hours until cells were between 75-90% confluent. Medium was aspirated and replaced with medium containing various concentrations of steroids or antagonists. After 1 hour incubation at 37°, TNFα (10 ng/ml final concentration in 0.2 ml) was added and the cells incubated overnight. Control wells with and without TNF were included on each plate, as well as wells with TNF in addition to a maximum (10 μM) concentration of dexamethasone. The cell culture medium was sampled and IL-6 and IL-8 cytokine production was measured using the MSD Multi-Spot immunoassay.

Structure (SMILES)	Emax [%]
Cc1ccccc1-n1ncc2c1C=C1CCC3C([C@@H](O)CC4(C)C3CC[C@]4(O)C(=O)CSc3nc4ccccc4n3C)C1(C)C2 (some centres unmarked) [Compound 77]	< 60
CC12Cc3cnn(C(C)(C)C)c3C=C1CCC1C2[C@@H](O)CC2(C)C1CC[C@]2(O)C(=O)CSc1nc2ncccc2o1 (some centres unmarked) [Compound 65]	< 60
Cc1ccnc(SCC(=O)[C@@]2(O)CCC3C4CCC5=Cc6c(cnn6C)CC5(C)C4[C@@H](O)CC32C)n1 (some centres unmarked) [Compound 31]	< 60
Cn1c(SCC(=O)[C@@]2(O)CCC3C4CCC5=Cc6c(cnn6C(C)(C)C)CC5(C)C4[C@@H](O)CC32C)nc2ccccc21 (some centres unmarked) [Compound 63]	< 60
CC12Cc3cnn(CCC#N)c3C=C1CCC1C2[C@@H](O)CC2(C)C1CC[C@]2(O)C(=O)CSc1nc2ccccc2s1 (some centres unmarked) [Compound 49]	< 60
Cn1ncc2c1C=C1CCC3C([C@@H](O)CC4(C)C3CC[C@]4(O)C(=O)CSc3ncccn3)C1(C)C2 (some centres unmarked) [Compound 26]	< 60
CC(C)(C)c1ccc(-n2ncc3c2C=C2CCC4C([C@@H](O)CC5(C)C4CC[C@]5(O)C(=O)CSc4ccccn4)C2(C)C3)cc1 (some centres unmarked) [Compound 93]	< 60

same assay, conditions: Homo sapiens; Table 2; NCl-H292 cells, TNFα 10 ng/ml

Structure (SMILES)	IC50 [nM]
C[C@@H](NC(=O)[C@@]1(O)CCC2C3CCC4=Cc5c(cnn5-c5ccc(F)cc5)C[C@]4(C)C3[C@@H](O)C[C@@]21C)c1ccccn1 (some centres unmarked) [Compound 9]	0.06 to 20
C[C@]12Cc3cnn(-c4ccc(F)cc4)c3C=C1CCC1C2[C@@H](O)C[C@@]2(C)C1CC[C@]2(O)C(=O)NCCc1nc2ccccc2o1 (some centres unmarked) [Compound 12]	0.06 to 20
C#CCNC(=O)[C@@]1(O)CCC2C3CCC4=Cc5c(cnn5-c5ccc(F)cc5)C[C@]4(C)C3[C@@H](O)C[C@@]21C (some centres unmarked) [Compound 5]	0.06 to 20
CC12Cc3cnn(-c4ccc(F)cc4)c3C=C1CCC1C2[C@@H](O)CC2(C)C1CC[C@]2(O)C(=O)Nc1nc2ccccc2s1 (some centres unmarked) [Compound 2]	0.06 to 20
CC12Cc3cnn(-c4ccc(F)cc4)c3C=C1CCC1C2[C@@H](O)CC2(C)C1CC[C@]2(O)C(=O)NCc1ccccc1 (some centres unmarked) [Compound 3]	0.06 to 20
CC(NC(=O)[C@@]1(O)CCC2C3CCC4=Cc5c(cnn5-c5ccc(F)cc5)CC4(C)C3[C@@H](O)CC21C)c1nc2ccccc2s1 (some centres unmarked) [Compound 23]	0.06 to 20
CC12Cc3cnn(-c4ccc(F)cc4)c3C=C1CCC1C2[C@@H](O)CC2(C)C1CC[C@]2(O)C(=O)NCc1nc2ccccc2o1 (some centres unmarked) [Compound 20]	0.06 to 20
CC12Cc3cnn(-c4ccc(F)cc4)c3C=C1CCC1C2[C@@H](O)CC2(C)C1CC[C@]2(O)C(=O)Nc1nc2cccnc2s1 (some centres unmarked) [Compound 1]	0.06 to 20

same assay, conditions: Homo sapiens; Table 2; NCl-H292 cells, TNFα 10 ng/ml; read-out: IL-8 inhibition (TR) Emax % inhibition

Structure (SMILES)	Emax [%]
C[C@@H](NC(=O)[C@@]1(O)CCC2C3CCC4=Cc5c(cnn5-c5ccc(F)cc5)C[C@]4(C)C3[C@@H](O)C[C@@]21C)c1ccccn1 (some centres unmarked) [Compound 9]	> 80
C[C@]12Cc3cnn(-c4ccc(F)cc4)c3C=C1CCC1C2[C@@H](O)C[C@@]2(C)C1CC[C@]2(O)C(=O)NCCc1nc2ccccc2o1 (some centres unmarked) [Compound 12]	> 80
C#CCNC(=O)[C@@]1(O)CCC2C3CCC4=Cc5c(cnn5-c5ccc(F)cc5)C[C@]4(C)C3[C@@H](O)C[C@@]21C (some centres unmarked) [Compound 5]	> 80
CC12Cc3cnn(-c4ccc(F)cc4)c3C=C1CCC1C2[C@@H](O)CC2(C)C1CC[C@]2(O)C(=O)Nc1nc2ccccc2s1 (some centres unmarked) [Compound 2]	> 80
CC12Cc3cnn(-c4ccc(F)cc4)c3C=C1CCC1C2[C@@H](O)CC2(C)C1CC[C@]2(O)C(=O)NCc1ccccc1 (some centres unmarked) [Compound 3]	> 80
CC(NC(=O)[C@@]1(O)CCC2C3CCC4=Cc5c(cnn5-c5ccc(F)cc5)CC4(C)C3[C@@H](O)CC21C)c1nc2ccccc2s1 (some centres unmarked) [Compound 23]	> 80
CC12Cc3cnn(-c4ccc(F)cc4)c3C=C1CCC1C2[C@@H](O)CC2(C)C1CC[C@]2(O)C(=O)NCc1nc2ccccc2o1 (some centres unmarked) [Compound 20]	> 80
CC12Cc3cnn(-c4ccc(F)cc4)c3C=C1CCC1C2[C@@H](O)CC2(C)C1CC[C@]2(O)C(=O)Nc1nc2cccnc2s1 (some centres unmarked) [Compound 1]	> 80

same assay, conditions: Homo sapiens; Table 3; NCl-H292 cells, TNFα 10 ng/ml

Structure (SMILES)	IC50 [nM]
Cn1c(SCC(=O)[C@@]2(O)CCC3C4CCC5=Cc6oncc6C[C@]5(C)C4[C@@H](O)C[C@@]32C)nc2ccccc21 (some centres unmarked) [Compound 5]	401 to 1000

same assay, conditions: Homo sapiens; Table 3; NCl-H292 cells, TNFα 10 ng/ml; read-out: IL-8 inhibition (TR) Emax % inhibition

Structure (SMILES)	Emax [%]
Cn1c(SCC(=O)[C@@]2(O)CCC3C4CCC5=Cc6oncc6C[C@]5(C)C4[C@@H](O)C[C@@]32C)nc2ccccc21 (some centres unmarked) [Compound 5]	< 60
C[C@]12Cc3cnoc3C=C1CCC1C2[C@@H](O)C[C@@]2(C)C1CC[C@]2(O)C(=O)CSc1nc2ccccc2o1 (some centres unmarked) [Compound 1]	< 60

same assay, conditions: Homo sapiens; Table 6; NCl-H292 cells, TNFα 10 ng/ml

Structure (SMILES)	IC50 [nM]
CC12Cc3cnn(-c4ccc(F)cc4)c3C=C1CCC1C2[C@@H](O)CC2(C)C1CC[C@]2(O)C(=O)Cn1cc(-c2cccnc2)nn1 (some centres unmarked) [Compound 1]	0.06 to 20
CC12Cc3cnn(-c4ccc(F)cc4)c3C=C1CCC1C2[C@@H](O)CC2(C)C1CC[C@]2(O)C(=O)Cn1cc(Cc2ccccc2)nn1 (some centres unmarked) [Compound 2]	0.06 to 20

same assay, conditions: Homo sapiens; Table 6; NCl-H292 cells, TNFα 10 ng/ml; read-out: IL-8 inhibition (TR) Emax % inhibition

Structure (SMILES)	Emax [%]
CC12Cc3cnn(-c4ccc(F)cc4)c3C=C1CCC1C2[C@@H](O)CC2(C)C1CC[C@]2(O)C(=O)Cn1cc(-c2cccnc2)nn1 (some centres unmarked) [Compound 1]	> 80
CC12Cc3cnn(-c4ccc(F)cc4)c3C=C1CCC1C2[C@@H](O)CC2(C)C1CC[C@]2(O)C(=O)Cn1cc(Cc2ccccc2)nn1 (some centres unmarked) [Compound 2]	> 80

same assay, conditions: Homo sapiens; Table 7; NCl-H292 cells, TNFα 10 ng/ml

Structure (SMILES)	IC50 [nM]
CCOC(=O)c1cnn(CC(=O)[C@@]2(O)CCC3C4CCC5=Cc6c(cnn6-c6ccc(F)cc6)CC5(C)C4[C@@H](O)CC32C)c1 (some centres unmarked) [Compound 3]	0.06 to 20

same assay, conditions: Homo sapiens; Table 7; NCl-H292 cells, TNFα 10 ng/ml; read-out: IL-8 inhibition (TR) Emax % inhibition

Structure (SMILES)	Emax [%]
CCOC(=O)c1cnn(CC(=O)[C@@]2(O)CCC3C4CCC5=Cc6c(cnn6-c6ccc(F)cc6)CC5(C)C4[C@@H](O)CC32C)c1 (some centres unmarked) [Compound 3]	> 80
